The target of this test is angiotensin-converting enzyme (ACE) (Homo sapiens, UniProt P12821). Put plainly: Angiotensin-converting enzyme (ACE) inhibitory assay (N-hippuryl-His-Leu substrate, HPLC detection of hippuric acid). It is filed as biochemical. Conditions: 37 °C, 60 min, captopril positive control, read-out: IC50 against angiotensin-converting enzyme (ACE). The method, then:
ACE inhibitory activity was determined by a previously reported method. In brief, 20 μL thiodiketopiperazines dissolved in DMSO with different concentrations were added to 120 μL N-hippuryl–His–Leu substrates, then preheated in water for 3–5 min; next, 10 μL ACE enzymatic solution was added and mixtures were incubated at 37 °C for 60 min, and 150 μL 1 M HCl was added to stop the reaction. The mixture was loaded for HPLC with a flow rate of 0.5 mL/min by 60% methanol, and the absorbance at 228 nm was detected. To serve as a blank, 10 μL pH 8.3 boric acid replaced the thiodiketopiperazines. Hippuric acid solutions at 10, 20, 40, 60, 80, and 100 μg/mL were prepared using 10 μL pH 8.3 boric acid. One enzymatic unit was defined as the amount giving the production of 1 μM hippuric acid by the catalyzation of the substrate N-hippuryl–His–Leu at 37 °C in 1 min. Captopril was used as a positive control.

The text below walks through data of article PMC6315564, “Geospallins A–C: New Thiodiketopiperazines with Inhibitory Activity against Angiotensin-Converting Enzyme from a Deep-Sea-Derived Fungus Geosmithia pallida FS140” (Marine Drugs, 2018).

Sequence of angiotensin-converting enzyme (ACE) (P12821 30-1306, species assumed): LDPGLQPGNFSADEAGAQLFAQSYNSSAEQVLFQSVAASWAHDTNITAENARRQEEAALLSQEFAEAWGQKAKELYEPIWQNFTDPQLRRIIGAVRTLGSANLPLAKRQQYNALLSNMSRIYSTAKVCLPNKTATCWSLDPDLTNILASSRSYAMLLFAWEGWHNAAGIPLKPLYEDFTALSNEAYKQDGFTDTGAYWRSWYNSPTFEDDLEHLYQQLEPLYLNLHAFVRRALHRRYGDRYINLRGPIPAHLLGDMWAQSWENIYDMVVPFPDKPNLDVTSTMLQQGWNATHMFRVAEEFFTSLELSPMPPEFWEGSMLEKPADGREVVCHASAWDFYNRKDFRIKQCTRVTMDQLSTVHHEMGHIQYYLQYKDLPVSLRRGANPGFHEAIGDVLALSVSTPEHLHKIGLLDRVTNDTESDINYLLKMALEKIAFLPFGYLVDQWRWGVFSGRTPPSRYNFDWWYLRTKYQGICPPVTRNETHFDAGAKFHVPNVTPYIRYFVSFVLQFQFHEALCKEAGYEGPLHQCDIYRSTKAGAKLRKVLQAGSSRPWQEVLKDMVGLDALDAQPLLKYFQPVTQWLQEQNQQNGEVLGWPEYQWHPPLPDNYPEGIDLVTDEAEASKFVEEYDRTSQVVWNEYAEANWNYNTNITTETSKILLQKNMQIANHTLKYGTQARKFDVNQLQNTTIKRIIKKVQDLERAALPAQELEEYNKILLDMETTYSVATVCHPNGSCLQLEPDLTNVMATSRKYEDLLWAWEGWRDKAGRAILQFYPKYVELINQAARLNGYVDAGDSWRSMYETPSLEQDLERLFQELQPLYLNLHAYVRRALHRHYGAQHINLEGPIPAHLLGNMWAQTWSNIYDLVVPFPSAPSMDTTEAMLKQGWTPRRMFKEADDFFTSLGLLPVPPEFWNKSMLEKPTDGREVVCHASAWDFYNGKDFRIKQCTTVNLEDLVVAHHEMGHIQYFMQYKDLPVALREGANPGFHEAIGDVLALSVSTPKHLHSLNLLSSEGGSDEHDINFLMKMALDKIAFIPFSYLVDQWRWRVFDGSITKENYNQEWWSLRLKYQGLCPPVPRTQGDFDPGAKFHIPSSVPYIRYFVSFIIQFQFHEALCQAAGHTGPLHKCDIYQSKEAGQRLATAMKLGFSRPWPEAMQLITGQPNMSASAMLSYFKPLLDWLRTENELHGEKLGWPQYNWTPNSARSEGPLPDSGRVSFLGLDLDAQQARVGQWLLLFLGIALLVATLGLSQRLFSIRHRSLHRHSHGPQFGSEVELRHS

On to `CSC1(CO)C(=O)N2C3C(OC(C)=O)C(=O)C=CC3(O)CC2(SC)C(=O)N1C` (stereo not drawn) [Compound 3, geospallin C], for which the IC50 (in general, the point on the concentration scale where inhibition reaches its midpoint) amounted to 29 ± 3.3 µM.

For `COC12CC3(O)C(SC)C=CC(OC(C)=O)C3N1C(=O)C(CO)(SC)N(C)C2=O` (stereo not drawn) [Compound 1, geospallin A], the IC50 came out at 35 ± 5.2 µM.

As to `CSC1C=CC(OC(C)=O)C2N3C(=O)C(CO)(SC)N(C)C(=O)C3(O)CC12O` (stereo not drawn) [Compound 2, geospallin B], the IC50 turned out to be 31 ± 3.3 µM.
